Where two headings read alike, the source gives them in different places.
Assays:
[1] = system: A2780/AD cells; experiment: In vitro cytotoxicity (WSK-8) assay; format: cell-based
Description: In vitro cytotoxicity (WSK-8) assays
The proliferation of exponential phase cultures of A2780/AD cells was assessed by colorimetric assay (WSK-8). In brief, cells were plated onto a 96 well microtiter plates at 5,000 cells per well. After a 24 hour incubation period to facilitate adherence, the RPMI media was removed and replaced with 100 or 200 μL of fresh media containing the different concentrations of drug. The cells were then incubated for 1 or 3 days at 37 °C at 95% humidity and 5% CO2. The media was then removed, and replaced with 100 μL fresh media containing 10% WSK-8 dye. The plates were incubated for 1.5 hours and subsequently measured at 450 nm with a 96-well plate reader. A non-linear curve fitted to the concentrations tested was used and the data plotted using Origin software. Each concentration was run in triplicate, and drug was tested 3 times.

[2] = system: reduced folate carrier (RFC); conditions: cited from earlier work
[3] = system: folate receptor (FR); conditions: cited from earlier work
[4] = biological target: T1, dihydrofolate reductase (DHFR) (Homo sapiens, UniProt P00374); experiment: In vitro, cell free DHFR inhibition assay; format: biochemical; conditions: cell free colorimetric assay, absorbance over 2.5 minutes
T1 construct: purchased Sigma Aldrich
T1 sequence (P00374 1-187): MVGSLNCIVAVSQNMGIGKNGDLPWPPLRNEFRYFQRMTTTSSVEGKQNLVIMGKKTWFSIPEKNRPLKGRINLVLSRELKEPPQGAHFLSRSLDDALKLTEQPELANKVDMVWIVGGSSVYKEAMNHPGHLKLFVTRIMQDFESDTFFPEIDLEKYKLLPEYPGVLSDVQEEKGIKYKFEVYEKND
Description: In vitro, cell free DHFR inhibition assay
The DHFR calorimetric assay was purchased from Sigma Aldrich, and was performed according to instructions. Briefly, DHFR was mixed with inhibitor and NADPH.
The percent of control was plotted, and a fit using a power regression line used.

[5] = Stability study in PBS buffer (HPLC); format: physicochemical; conditions: phosphate buffered saline pH 7.4, 37 °C
Description: To explain the in vitro results, the stability of the compounds was examined. (3) was dissolved in phosphate buffered saline at a pH of 7.4, and incubated at 37 °C. Time points were taken at 24 and 72 hours. […] While not completely stable over the time tested, the stability of the carbamate linkage could be preventing the nucleoside from being released in the cell over the earlier time points. This is consistent with previous nucleoside conjugate work reported and the observation that (2) and (3) have a greater toxicity at 72 hours than the carrier system (1). The delay in the release could explain the discrepancies between the conjugated and the unconjugated systems.
(3) was dissolved in PBS buffer 1 at pH 7.4 in a concentration of [l mM]. The solution was incubated at 37 °C for 24 and 72 hours. Samples from the solution were examined using the HPLC Eclipse XDB C18 analytical column (4.6 × […]; Agilent Technologies). The method conditions were the same as the purification with a flow rate of 0.7 ml/min.

[6] = A2780AD, 24 h, read-out: In vitro IC50, 24 hours
[7] = A2780AD, 72 h, read-out: In vitro IC50, 72 hours
[8] = A2780/AD ovarian cancer cell line, 24 hours incubation, folate deficient media, read-out: In vitro IC50, 24 hours
[9] = A2780/AD ovarian cancer cell line, 72 hours incubation, folate deficient media, read-out: In vitro IC50, 72 hours

Cc1cn([C@H]2C[C@H](N=[N+]=[N-])[C@@H](CO)O2)c(=O)[nH]c1=O [AZT, 3’-Azido-3’-deoxythymidine, reference compound]
IC50 [1, 6]: > 10000 µM
IC50 [1, 7]: 8000 ± 1000 µM

Nc1nc(=O)c2nc(CNc3ccc(C(=O)N[C@@H](CCC(=O)O)C(=O)O)cc3)cnc2[nH]1 [Folate, Folic acid]
Km [2]: 200 to 400 µM

CN(Cc1cnc2nc(N)nc(N)c2n1)c1ccc(C(=O)N[C@@H](CCC(=O)O)C(=O)O)cc1 [MTX, Methotrexate]
Lower affinity of FR for MTX over folate ([3]; relative to folate): approximately 100 fold
Less affinity for the FR than oxidized folate ([3]; relative to oxidized folate): 100 fold
IC50 [1, 6]: > 10000 µM
IC50 [1, 7]: 7000 ± 900 µM
Km [2]: 5 to 10 µM
Greater affinity for the RFC over folate ([2]; relative to folate): 100 times

γ-MTX-PEG-AZT [Compound 2]
IC50 [4]: 152 µM
IC50 [1, 8]: > 1000 µM
IC50 [1, 9]: 430 ± 30 µM

γ-MTX-PEG-IUdR [Compound 3]
IC50 [4]: 394 µM
IC50 [1, 8]: > 1000 µM
IC50 [1, 9]: 211 ± 100 µM
Stability, free nucleoside after 24 hours ([5]; 24 hours): no sign of free nucleoside
Stability, free nucleoside after 72 hours ([5]; 72 hours): partial decomposition

γ-MTX-PEG-NH2 [Compound 1]
IC50 [4]: 200 µM
IC50 [1, 8]: > 1000 µM
IC50 [1, 9]: 700 ± 100 µM

γ-MTX-PEG-ddC [Compound 4]
IC50 [4]: 178 µM
IC50 [1, 8]: > 1000 µM
IC50 [1, 9]: 960 ± 80 µM
